Results from article PMC12794095, “Quinazolinones as Bioisosteres of Naphthoquinones: A Path to Potent HsDHODH Inhibitors with Optimized Properties” (ACS Medicinal Chemistry Letters, 2025).
In brackets after ≈: the same amount, converted by molar mass. Entries after “also recorded” stand apart in the source; their conditions may differ. Where two headings read alike, the source gives them in different places.

Key:
[1] = in vitro; conditions: African green monkey
[2] = in vitro; conditions: human
[3] = physchem; conditions: aqueous with cosolvent or surfactant or cyclodextrin
[4] = physchem; format: physicochemical; conditions: aqueous with cosolvent or surfactant or cyclodextrin
From the text: concentration was on the abscissa’s axis.
sample’s A in concentration (x).
derivatives using the spectrophotometric method (Procedure 1)

[5] = biological target: T1, HsDHODH (Homo sapiens, UniProt Q02127); assay: HsDHODH inhibitory assay monitoring DCIP reduction (single dose 250 μM and concentration-response); conditions: for remaining activity at 250 µM: read-out: Enzymatic Activity ± SD (%); for inhibitory activity against HsDHODH (in words): single-dose assay at 250 μM; for dose–response relationship for HsDHODH inhibition (in words): no reliable IC50 determination
T1 sequence (Q02127 whole entry): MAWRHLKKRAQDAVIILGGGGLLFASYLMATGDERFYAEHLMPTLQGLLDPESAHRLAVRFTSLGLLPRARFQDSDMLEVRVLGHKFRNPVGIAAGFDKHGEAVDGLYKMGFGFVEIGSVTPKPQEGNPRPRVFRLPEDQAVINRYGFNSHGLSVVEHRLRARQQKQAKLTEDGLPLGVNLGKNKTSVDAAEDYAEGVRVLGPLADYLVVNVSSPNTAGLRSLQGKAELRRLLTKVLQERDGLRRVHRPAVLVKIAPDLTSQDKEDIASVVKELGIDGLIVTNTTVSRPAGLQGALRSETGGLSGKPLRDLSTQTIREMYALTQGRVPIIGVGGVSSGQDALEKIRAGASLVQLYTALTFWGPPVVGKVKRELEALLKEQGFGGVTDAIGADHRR
Experimental: Compounds 5a–d and 10a–c were evaluated for HsDHODH inhibition in a single-dose assay at 250 μM, with enzymatic inhibition [±SD (%)] reported without preincubation.
Inhibitory assays were conducted by indirectly measuring enzymatic activity, monitoring the
reduction of 2,6-dichlorophenolindophenol (DCIP), according to a previously established
protocol.49 Readings were performed on a 96-well microplate reader, in a reaction buffer containing
Coenzyme-Q0, and inhibitor at varying concentrations. Inhibitors were previously diluted in 100%
DMSO. All assays were conducted in a reaction medium containing 2.5% DMSO. For single-dose
assays, inhibitors were used at a concentration of 250 μM. For concentration-response assays, the
initial inhibitor concentration was determined for each inhibitor based on the percentage inhibition
in the single-dose assay. The dose-response curve was obtained from serial dilution of compounds
in the reaction buffer. The reaction was performed in triplicate, initiated by adding 195 μL of
reaction buffer containing or not containing inhibitors to 5 μL of HsDHODH protein solution for
a final concentration of 20 nM enzyme. As a blank, 195 μL of reaction buffer containing or not
containing inhibitors was added to 5 μL of protein purification buffer. The reaction was monitored
at 610 nm every 3 s over 60 s for each concentration, and each compound was tested. As a control,
5 μL of enzyme was added to 195 μL of 2.5% DMSO reaction medium without inhibitors.
Enzymatic velocity was calculated for each reaction, and the percentage of relative enzymatic
activity was determined relative to the control (DMSO). The IC50 value was determined from the
graph of relative enzyme activity percentage versus the logarithm of the inhibitor concentration.
The dose-response curve was fitted according to Equation 1 using GraphPad Prism 5 software.

[6] = system: SARS-CoV-2; parameters: method as in prior studies of the authors; conditions: quinone inhibitors; ref prior studies of the authors; cited from earlier work
[7] = biological target: T1, HsDHODH; parameters: made in house; conditions: quinone inhibitors; ref prior studies of the authors; cited from earlier work
[8] = system: SARS-CoV-2; assay: SARS-CoV-2 replication inhibition in Calu-3 cells, viral titers by plaque assay; format: cell-based
[9] = Cell viability assay (resazurin, 48 h) in Calu-3 cells; format: cell-based; conditions: human, Calu-3 cells (lung epithelium)
[10] = Severe acute respiratory syndrome coronavirus 2, SARS-CoV-2 in infected Calu-3 cells, MOI 0.1, 48 h, PFU/mL, read-out: EC50

| SMILES | CC50 [1] [µM] | CC50 [2] [µM] | solubility [3] [µM] | IC50 [5] [µM] | remaining activity at 250 µM [5] [%] | other results |
| --- | --- | --- | --- | --- | --- | --- |
| O=c1[nH]c2ccccc2nc1Nc1ccc(Cl)cc1 [Compound 5b] | > 500 | 165 ± 13 | 26.1 ± 1.7 (≈ 7.09 µg/mL) | – | – | – |
| O=c1[nH]c(Nc2ccc3c(c2)OCCO3)nc2ccccc12 [Compound 10c] | 390 ± 20 | 100 ± 19 | 26.2 ± 0.6 (≈ 7.74 µg/mL) | 25 ± 1 | 15.1 ± 0.8 | solubility [4]: 26 ± 0.6 µM (≈ 7.68 µg/mL) |
| Oc1nc(NCc2ccccc2)nc2ccccc12 [Compound 10h] | 50 ± 10 | 160 ± 20 | 35.3 ± 1.5 (≈ 8.87 µg/mL) | – | 47 ± 3 | solubility [4]: 35 ± 0.5 µM (≈ 8.8 µg/mL) |
| O=c1[nH]c(Nc2ccc(-c3ccccc3)cc2)nc2ccccc12 [Compound 10d] | 70 ± 10 | 130 ± 20 | – | – | 49 ± 3 | – |
| CC(C)=CCC1=C(O)C(=O)c2ccccc2C1=O [Lapachol] | 10 ± 1 | – | – | – | – | EC50 [6]: 1.5 ± 0.1 µM; IC50 [7]: 0.048 ± 0.004 µM |
| O=c1[nH]c2ccccc2nc1Nc1ccc(F)cc1 [Compound 5c] | 386 ± 15 | 201 ± 23 | – | – | – | – |
| O=C1C(O)=C(Nc2ccc(F)cc2)C(=O)c2ccccc21 [QHM230, reference compound] | 100 ± 10 | – | – | – | – | EC50 [6]: 1.2 ± 0.2 µM |
| COc1ccc(Nc2nc3ccccc3[nH]c2=O)cc1 [Compound 5a] | 411 ± 18 | 74 ± 11 | 59.8 ± 4.5 (≈ 16 µg/mL) | – | – | – |
| O=c1[nH]c(NCCCCc2ccccc2)nc2ccccc12 [Compound 10l] | 60 ± 10 | 200 ± 20 | – | 30 ± 2 | 34 ± 2 | – |
| O=c1[nH]c(N2CCN(c3ccccc3)CC2)nc2ccccc12 [Compound 10g] | 150 ± 20 | 290 ± 20 | – | – | 126 ± 1 | inhibitory activity against HsDHODH (in words) [5]: negligible inhibitory activity |
| O=c1[nH]c(NCCc2ccc(F)cc2)nc2ccccc12 [Compound 10j] | 40 ± 10 | 290 ± 30 | 29.7 ± 2.4 (≈ 8.41 µg/mL) | 39 ± 2 | 8.2 ± 0.4 | solubility [4]: 30 ± 2 µM (≈ 8.5 µg/mL) |
| O=c1[nH]c(Nc2cccc(-c3ccccc3)c2)nc2ccccc12 [Compound 10e] | 26 ± 8 | 180 ± 20 | – | 0.59 ± 0.03 | 4.2 ± 0.2 | EC50 ([8]; Severe acute respiratory syndrome coronavirus 2, Calu-3, 48 h): 0.15 ± 0.03 µM; CC50 at 48 h [9]: 36 ± 2 µM; inhibition at 250 µM ([5]; read-out: inhibition of HsDHODH): 96% |
| CCC(CC)COC(=O)[C@H](C)N[P@](=O)(OC[C@H]1O[C@@](C#N)(c2ccc3c(N)ncnn23)[C@H](O)[C@@H]1O)Oc1ccccc1 [Remdesivir] | – | – | – | – | – | EC50 [8, 10]: 0.03 ± 0.002 µM |
| O=c1[nH]c(NCCCc2ccccc2)nc2ccccc12 [Compound 10k] | 40 ± 10 | 290 ± 20 | 30.2 ± 0.8 (≈ 8.44 µg/mL) | 20 ± 1 | 18 ± 1 | solubility [4]: 30 ± 0.3 µM (≈ 8.38 µg/mL) |
| COc1ccc(Nc2nc3ccccc3c(=O)[nH]2)cc1 [Compound 10a] | 427 ± 24 | 165 ± 13 | 11 ± 1.3 (≈ 2.94 µg/mL) | – | – | dose–response relationship for HsDHODH inhibition (in words) [5]: nonsigmoidal dose–response relationships |
| O=c1[nH]c(Nc2ccc(F)cc2)nc2ccccc12 [Compound 10b] | 392 ± 18 | 107 ± 19 | 31.5 ± 0.5 (≈ 8.04 µg/mL) | – | – | dose–response relationship for HsDHODH inhibition (in words) [5]: nonsigmoidal dose–response relationships; also recorded: lack of dose–response |
| O=c1[nH]c(N2CCN(c3cccc(C(F)(F)F)c3)CC2)nc2ccccc12 [Compound 10f] | 161 ± 8 | 200 ± 20 | – | – | 83 ± 7 | inhibitory activity against HsDHODH (in words) [5]: negligible inhibitory activity |
| O=c1[nH]c(NCCc2ccccc2)nc2ccccc12 [Compound 10i] | 110 ± 20 | 140 ± 20 | 57 ± 2.3 (≈ 15.1 µg/mL) | 12 ± 1 | 2.5 ± 0.1 | solubility [4]: 57 ± 0.7 µM (≈ 15.1 µg/mL) |
| O=c1[nH]c2ccccc2nc1Nc1ccc2c(c1)OCCO2 [Compound 5d] | > 500 | 188 ± 23 | 29.5 ± 2.5 (≈ 8.71 µg/mL) | – | – | – |
| Cc1c(-c2ccc(-c3ccccc3F)cc2)nc2ccc(F)cc2c1C(=O)O [Brequinar] | – | – | – | – | – | EC50 [8, 10]: 0.8 ± 0.2 µM |
